A word on the inhibition: it is the relative decrease from the control value, in per cent.

Our source for the Emax, EC50 and inhibition values is patent publication US10392383B2, “3-(1H-benzo[d]imidazol-2-yl)-1H-pyrazolo[4,3-b]pyridines and therapeutic uses thereof” (Samumed, LLC, priority 2015, dated 2019).

Experiment [1] concerns primary human mesenchymal stem cells (hMSCs). Kind of experiment: Induction of chondrogenesis in human mesenchymal stem cells (nodule staining with Rhodamine B / Nile Red). Type of experiment: cell-based. The conditions noted are these: for Emax: TGF-β3 (10 ng/mL) as positive control, read-out: Max. Activity as % TGF-β3 activity; for EC50: concentration required to induce 50% levels of chondrogenesis vs TGF-β3, read-out: Conc (nM) of 50% TGF-β3 activity. On the procedure:
Representative compounds were screened using primary human mesenchymal stem cells (hMSCs) to determine their ability to induce chondrogenesis (process by which cartilage is developed).
Human Mesenchymal Stem Cell Culture: Primary human mesenchymal stem cells (hMSCs) were purchased from Lonza (Walkersville, Md.) and expanded in Mesenchymal Stem Cell Growth Media (Lonza). Cells between passage 3 and 6 were used for the experiments.
Compound Screening: Each compound was dissolved in DMSO as a 10 mM stock and used to prepare compound source plates. For the 96 well assay, serial dilution (1:3, 6-point dose-response curves from 2700 nM to 10 nM) and compound transfer was performed using the ECHO 550 (Labcyte, Sunnyvale, Calif.) into 96-well clear bottom assay plates (Greiner Bio-One) with appropriate DMSO backfill for a final DMSO concentration of 0.03%. hMSCs were plated at 20,000 cells/well in 250 μL/well Incomplete Chondrogenic Induction Medium (Lonza; DMEM, dexamethasone, ascorbate, insulin-transferrin-selenium [ITS supplement], gentamycin-amphotericin [GA-1000], sodium pyruvate, proline and L-glutamine). TGF-β3 (10 ng/mL) was used as a positive control for differentiation while negative control wells were treated with 75 nL DMSO for normalization and calculating EC50 values. For the 384 well assay, serial dilution (1:3, 8-point dose-response curves from 5000 nM to 2.2 nM) and compound transfer was performed using the ECHO 550 (Labcyte, Sunnyvale, Calif.) into 384-well clear bottom assay plates (Greiner Bio-One) with appropriate DMSO backfill for a final DMSO concentration of 0.03%. hMSCs were plated at 8,000 cells/well in 80 μL/well Incomplete Chondrogenic Induction Medium (Lonza; DMEM, dexamethasone, ascorbate, insulin-transferrin-selenium [ITS supplement], gentamycin-amphotericin [GA-1000], sodium pyruvate, proline and L-glutamine). TGF-β3 (10 ng/mL) was used as a positive control for differentiation while negative control wells were treated with 25 nL DMSO for normalization and calculating EC50 values. Cells were incubated at 37° C. and 5% CO2 for 6 days. To image chondrogenic nodules, the cells were fixed using 4% formaldehyde (Electron Microscopy Sciences), and stained with 2 μg/mL Rhodamine B (Sigma-Aldrich) and 20 μM Nile Red (Sigma-Aldrich) [Johnson K., et. al, A Stem Cell-Based Approach to Cartilage Repair, Science, (2012), 336(6082), 717-721]. The nodules imaged (25 images per well for 96 well plates and 9 images per well for 384 well plates at 10× magnification) by excitation at 531 nm and emission at 625 nm and quantified using the CellInsight CX5 (Thermo Scientific). Area of nodules in each well was normalized to the average of 3 DMSO treated wells on the same plate using Excel (Microsoft Inc.). The normalized averages (fold change over DMSO) of 2 or 3 replicate wells for each compound concentration were calculated. Due to solubility limitations of some of the compounds, curve fitting was incomplete leading to inaccurate EC50 determinations.
Using TGF-β3 as a positive control, the concentration of representative compounds required to induce 50% levels of chondrogenesis is reported. In addition, the maximum activity of each compound and the respective dose that each compound reached maximum chondrogenesis activity is reported.

The test system of another experiment is IL-6 (THP-1 cells). Briefly: IL-6 inhibition in LPS-stimulated THP-1 monocytes (HTRF). Conditions: Homo sapiens, IL-6 HTRF; for EC50: 500 ng/mL LPS, Table 6; for inhibition at 10 µM: LPS, Table 6, read-out: percent inhibition at 10 μM (given in parentheses for EC50 >10 μM). Type of experiment: cell-based. The essentials:
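THP-1 cells in 1% FBS pre-incubated 2 h with compound (10-point 1:3 series from 10 μM, 0.1% DMSO), then stimulated with 500 ng/mL LPS for 22 h at 37 °C. IL-6 measured by HTRF 665/620 ratio, normalized to DMSO; EC50 by four-parameter fit, or % inhibition at 10 μM when EC50 >10 μM.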
For orientation: Time-resolved FRET reads energy transfer from a long-lived donor to a nearby acceptor.

In the case of `CCC(=O)Nc1cncc(-c2ccc3[nH]nc(-c4nc5c(-c6cccc(F)c6)cccc5[nH]4)c3n2)c1` [Compound 1, N-(5-(3-(4-(3-Fluorophenyl)-1H-benzo[d]imidazol-2-yl)-1H-pyrazolo[4,3-b]pyridin-5-yl)pyridin-3-yl)propionamide], the Emax in experiment [1] was 99%. For the same compound, in the experiment on IL-6 (THP-1 cells), the EC50 is over 10 µM and the inhibition at 10 µM was 49.2%.
Regarding `CC(C)CC(=O)Nc1cncc(-c2ccc3[nH]nc(-c4nc5c(-c6cccc(F)c6)cccc5[nH]4)c3n2)c1` [Compound 2, N-(5-(3-(4-(3-Fluorophenyl)-1H-benzo[d]imidazol-2-yl)-1H-pyrazolo[4,3-b]pyridin-5-yl)pyridin-3-yl)-3-methylbutanamide], in experiment [1], the Emax worked out at 57%. The EC50 in experiment [1] worked out at 21 nM; with IL-6 (THP-1 cells) it was 6.69 µM.
For `CN(C)c1cncc(-c2ccc3[nH]nc(-c4nc5c(-c6cccc(F)c6)cccc5[nH]4)c3n2)c1` [Compound 7, 5-(3-(4-(3-fluorophenyl)-1H-benzo[d]imidazol-2-yl)-1H-pyrazolo[4,3-b]pyridin-5-yl)-N,N-dimethylpyridin-3-amine], in experiment [1], the Emax is 53% and the EC50 came to 30 nM. Also, the EC50 with IL-6 (THP-1 cells) stood at 9.5 µM.
Take `CN(C)Cc1cncc(-c2ccc3[nH]nc(-c4nc5c(-c6cccc(F)c6)cccc5[nH]4)c3n2)c1` [Compound 13, 1-(5-(3-(4-(3-Fluorophenyl)-1H-benzo[d]imidazol-2-yl)-1H-pyrazolo[4,3-b]pyridin-5-yl)pyridin-3-yl)-N,N-dimethylmethanamine]: in experiment [1], the Emax amounted to 85% and the EC50 came out at 30 nM. The EC50 in the experiment with IL-6 (THP-1 cells) was determined as 1.37 µM.
`Fc1cccc(-c2cccc3[nH]c(-c4n[nH]c5ccc(-c6ccncc6)nc45)nc23)c1` [Compound 18, 3-(4-(3-Fluorophenyl)-1H-benzo[d]imidazol-2-yl)-5-(pyridin-4-yl)-1H-pyrazolo[4,3-b]pyridine]: the Emax in experiment [1] amounted to 39%. The same compound displayed an EC50 in the experiment with IL-6 (THP-1 cells) of 3.62 µM.
In the case of `Cc1cn(-c2cccc3[nH]c(-c4n[nH]c5ccc(-c6cncc(NC(=O)CC(C)C)c6)nc45)nc23)cn1` [Compound 198, 3-Methyl-N-(5-(3-(4-(4-methyl-1H-imidazol-1-yl)-1H-benzo[d]imidazol-2-yl)-1H-pyrazolo[4,3-b]pyridin-5-yl)pyridin-3-yl)butanamide], the Emax in experiment [1] came to 44%. Also, in the experiment with IL-6 (THP-1 cells), the EC50 is over 10 µM and the inhibition at 10 µM was 30.8%.
Take `Cc1cn(-c2cccc3[nH]c(-c4n[nH]c5ccc(-c6cncc(NC(=O)C(C)(C)C)c6)nc45)nc23)cn1` [Compound 204, N-(5-(3-(4-(4-Methyl-1H-imidazol-1-yl)-1H-benzo[d]imidazol-2-yl)-1H-pyrazolo[4,3-b]pyridin-5-yl)pyridin-3-yl)pivalamide]: in experiment [1], the Emax worked out at 78% and the EC50 turned out to be 10 nM. In the experiment with IL-6 (THP-1 cells), this compound displayed an EC50 of 6.38 µM.
Regarding `Cc1cn(-c2cccc3[nH]c(-c4n[nH]c5ccc(-c6cncc(CN7CCCC7)c6)nc45)nc23)cn1` [Compound 210, 3-(4-(4-Methyl-1H-imidazol-1-yl)-1H-benzo[d]imidazol-2-yl)-5-(5-(pyrrolidin-1-ylmethyl)pyridin-3-yl)-1H-pyrazolo[4,3-b]pyridine], in experiment [1], the Emax amounted to 193% and the EC50 was 7 nM. In addition, in the experiment on IL-6 (THP-1 cells), the EC50 was over 10 µM and the inhibition at 10 µM was determined as 33.2%.
For `Cc1cn(-c2cccc3[nH]c(-c4n[nH]c5ccc(-c6cncc(NC(=O)C7CCC7)c6)nc45)nc23)cn1` [Compound 217, N-(5-(3-(4-(4-Methyl-1H-imidazol-1-yl)-1H-benzo[d]imidazol-2-yl)-1H-pyrazolo[4,3-b]pyridin-5-yl)pyridin-3-yl)cyclobutanecarboxamide], the Emax in experiment [1] came out at 32%. In addition, in the experiment on IL-6 (THP-1 cells), the EC50 is over 10 µM and the inhibition at 10 µM was determined as 51.9%.
As for `c1cncc(-c2ccc3[nH]nc(-c4nc5ccccc5[nH]4)c3n2)c1` [Compound 256, 3-(1H-Benzo[d]imidazol-2-yl)-5-(pyridin-3-yl)-1H-pyrazolo[4,3-b]pyridine], in experiment [1], the Emax turned out to be 85% and the EC50 is 10 nM. For the same compound, in the experiment on IL-6 (THP-1 cells), the EC50 was over 10 µM and the inhibition at 10 µM amounted to 0%.
Turning to `Cc1ccncc1-c1ccc2[nH]nc(-c3nc4c(-c5ccsc5)cccc4[nH]3)c2n1` [Compound 285, 5-(4-Methylpyridin-3-yl)-3-(4-(thiophen-3-yl)-1H-benzo[d]imidazol-2-yl)-1H-pyrazolo[4,3-b]pyridine], the Emax in experiment [1] was determined as 32%. Besides, in the experiment with IL-6 (THP-1 cells), the EC50 is over 10 µM and the inhibition at 10 µM was found to be 36.3%.
For the compound `FC1(F)CCN(Cc2cncc(-c3ccc4[nH]nc(-c5nc6c(-c7ccsc7)cccc6[nH]5)c4n3)c2)C1` [Compound 306, 5-(5-((3,3-Difluoropyrrolidin-1-yl)methyl)pyridin-3-yl)-3-(4-(thiophen-3-yl)-1H-benzo[d]imidazol-2-yl)-1H-pyrazolo[4,3-b]pyridine], the Emax in experiment [1] is 39%. Also, the EC50 with IL-6 (THP-1 cells) came out at 4.48 µM.
Turning to `CCNCc1cncc(-c2ccc3[nH]nc(-c4nc5c(-c6ccoc6)cccc5[nH]4)c3n2)c1` [Compound 314, N-((5-(3-(4-(Furan-3-yl)-1H-benzo[d]imidazol-2-yl)-1H-pyrazolo[4,3-b]pyridin-5-yl)pyridin-3-yl)methyl)ethanamine], the Emax in experiment [1] turned out to be 32%. Also, in the experiment with IL-6 (THP-1 cells), the EC50 was over 10 µM and the inhibition at 10 µM was found to be 15.6%.
In the case of `CCC(=O)Nc1cncc(-c2ccc3[nH]nc(-c4nc5c(-c6cccs6)cccc5[nH]4)c3n2)c1` [Compound 337, N-(5-(3-(4-(Thiophen-2-yl)-1H-benzo[d]imidazol-2-yl)-1H-pyrazolo[4,3-b]pyridin-5-yl)pyridin-3-yl)propionamide], the Emax in experiment [1] turned out to be 57%. This compound also showed an EC50 with IL-6 (THP-1 cells) of 2.1 µM.
In the case of `CN(C)c1cncc(-c2ccc3[nH]nc(-c4nc5c(-c6cccs6)cccc5[nH]4)c3n2)c1` [Compound 343, N,N-Dimethyl-5-(3-(4-(thiophen-2-yl)-1H-benzo[d]imidazol-2-yl)-1H-pyrazolo[4,3-b]pyridin-5-yl)pyridin-3-amine], in experiment [1], the Emax stood at 83% and the EC50 stood at 100 nM. The compound further showed an EC50 in the experiment with IL-6 (THP-1 cells) of 3.67 µM.
Turning to `CN(C)Cc1cncc(-c2ccc3[nH]nc(-c4nc5c(-c6cccs6)cccc5[nH]4)c3n2)c1` [Compound 349, N,N-dimethyl-1-(5-(3-(4-(thiophen-2-yl)-1H-benzo[d]imidazol-2-yl)-1H-pyrazolo[4,3-b]pyridin-5-yl)pyridin-3-yl)methanamine], in experiment [1], the Emax was 51% and the EC50 worked out at 10 nM. Moreover, in the experiment with IL-6 (THP-1 cells), the EC50 is over 10 µM and the inhibition at 10 µM stood at 14.5%.
Turning to `Cc1ccc(-c2cccc3[nH]c(-c4n[nH]c5ccc(-c6cncc(N)c6)nc45)nc23)s1` [Compound 395, 5-(3-(4-(5-Methylthiophen-2-yl)-1H-benzo[d]imidazol-2-yl)-1H-pyrazolo [4,3-b]pyridin-5-yl)pyridin-3-amine], in experiment [1], the Emax was determined as 88% and the EC50 worked out at 10 nM. Moreover, the EC50 in the experiment with IL-6 (THP-1 cells) was determined as 0.064 µM.
With `Cc1ccc(-c2cccc3[nH]c(-c4n[nH]c5ccc(-c6cncc(NC(=O)C(C)C)c6)nc45)nc23)s1` [Compound 401, N-(5-(3-(4-(5-Methylthiophen-2-yl)-1H-benzo[d]imidazol-2-yl)-1H-pyrazolo [4,3-b]pyridin-5-yl)pyridin-3-yl)isobutyramide], in experiment [1], the Emax came out at 124% and the EC50 was found to be 300 nM. Further, in the experiment on IL-6 (THP-1 cells), the EC50 was over 10 µM and the inhibition at 10 µM worked out at 45.4%.
